Literature values in patent publication US20260091056A1, “COMPOSITIONS FOR CONTROLLING ODOR AND ITCH AND METHODS OF AND DEVICES FOR ADMINISTERING SAME” (Vireo Systems, Inc., priority 2020, published 2026).

Settings: at 25° C.

boric acid
pKa value: ~9.14
